Read-outs that look alike come from different tables or passages of the source. Marks after values point to notes of the source that are not given here.
Experiments:
NET = NET (Homo sapiens, UniProt P23975); experiment: Stereoselective uptake into NET-overexpressing HEK293 cells; conditions: for Vmax ± SEM / Km: HEK293 cells overexpressing human NET, racemic substrate, two minutes; for Vmax ± SEM: net uptake; for Clint ± SEM / Stereoselectivity ClInt / Stereoselectivity Vmax / Stereoselectivity Km: NET; for Clint ± SEM: quotient of vmax over Km; for Stereoselectivity ClInt / Stereoselectivity Vmax / Stereoselectivity Km: ratio between enantiomers; for Stereoselectivity ClInt / Stereoselectivity Vmax: given as for (S) or for 2; for Stereoselectivity Km: given as for (S) or for 2 (second-eluting); for Km: read-out: Km ± SEM, net uptake minus empty vector control;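 on all read-outs here: intracellular enantiomers quantified in cell lysates by chiral HPLC-MS/MS after a 2 min substrate incubation, with uptake normalized to total cellular protein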
Chain of NET (P23975 whole entry): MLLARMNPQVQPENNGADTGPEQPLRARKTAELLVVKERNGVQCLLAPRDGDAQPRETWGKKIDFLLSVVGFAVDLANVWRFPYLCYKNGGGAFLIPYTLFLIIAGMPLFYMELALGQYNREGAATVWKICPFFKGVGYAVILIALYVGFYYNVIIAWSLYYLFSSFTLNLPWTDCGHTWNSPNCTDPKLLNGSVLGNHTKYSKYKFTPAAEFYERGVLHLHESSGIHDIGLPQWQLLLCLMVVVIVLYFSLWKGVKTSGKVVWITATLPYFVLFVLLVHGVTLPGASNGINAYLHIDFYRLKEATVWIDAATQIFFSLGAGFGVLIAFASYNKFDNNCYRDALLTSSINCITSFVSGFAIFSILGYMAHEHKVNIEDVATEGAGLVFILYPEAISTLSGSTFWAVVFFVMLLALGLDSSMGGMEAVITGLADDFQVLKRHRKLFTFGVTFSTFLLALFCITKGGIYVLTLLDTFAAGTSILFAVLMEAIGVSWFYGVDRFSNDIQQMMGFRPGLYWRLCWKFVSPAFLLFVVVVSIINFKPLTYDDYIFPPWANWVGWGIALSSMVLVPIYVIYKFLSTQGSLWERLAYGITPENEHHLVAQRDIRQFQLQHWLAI

OCT3 = target: T1, OCT3 (Homo sapiens, UniProt O75751); experiment: Stereoselective uptake into OCT3-overexpressing HEK293 cells; conditions: for Clint ± SEM: quotient of vmax over Km; for Stereoselectivity Vmax: given as for (R) or for 1; for Stereoselectivity Km: given as for (R) or for 1 (first-eluting); for Vmax ± SEM / Km: HEK293 cells overexpressing human OCT3, racemic substrate, two minutes; for Vmax ± SEM: net uptake; for Km: read-out: Km ± SEM, net uptake minus empty vector control;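 on all read-outs here: intracellular accumulation in HEK293 cells measured by chiral HPLC-MS/MS after a 2 min substrate exposure at 37 °C, uptake normalized to total protein (bicinchoninic acid assay)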
T1 sequence (O75751 1-556): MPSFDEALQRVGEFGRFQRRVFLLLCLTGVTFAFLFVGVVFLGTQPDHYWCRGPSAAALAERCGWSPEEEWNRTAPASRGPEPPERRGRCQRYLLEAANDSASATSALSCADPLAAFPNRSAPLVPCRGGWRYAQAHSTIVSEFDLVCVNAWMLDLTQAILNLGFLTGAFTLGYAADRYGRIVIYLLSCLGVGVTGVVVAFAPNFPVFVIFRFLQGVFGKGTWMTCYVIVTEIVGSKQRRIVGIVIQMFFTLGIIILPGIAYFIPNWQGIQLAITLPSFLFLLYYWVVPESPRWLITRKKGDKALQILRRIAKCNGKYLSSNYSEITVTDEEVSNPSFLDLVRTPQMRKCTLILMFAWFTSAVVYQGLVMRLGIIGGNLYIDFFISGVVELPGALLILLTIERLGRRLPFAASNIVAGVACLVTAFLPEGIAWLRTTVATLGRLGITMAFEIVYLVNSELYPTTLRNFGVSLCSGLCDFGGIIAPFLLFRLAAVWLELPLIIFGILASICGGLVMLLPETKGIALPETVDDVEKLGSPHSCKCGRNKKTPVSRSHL
Procedure: (§1) All transport experiments were carried out in HEK293 cells stably overexpressing human MATs or OCTs. […] All cells were regularly cultivated in DMEM supplemented with 10% (v/v) FCS, penicillin (100 U/mL) and streptomycin (100 μg/mL)and kept in culture for no longer than 30 passages.
(§2) For the uptake experiments, 300,000 cells were plated in poly-D-lysine precoated 24-well plates 48 h ahead of the transport experiment. On the day of experiment, cells were initially washed once with 37 °C pre-warmed HBSS+ (Hanks buffered salt solution supplemented with 10 mM HEPES) and subsequently incubated with the substrates dissolved in pre-warmed HBSS+ for exactly two minutes. Incubation was stopped by adding ice-cold HBSS+ followed by two washing steps. After this, cells were lysed with 80% acetonitrile containing 10 ng/mL milnacipran as internal standard for high-performance liquid chromatography coupled to tandem mass spectrometry (HPLC-MS/MS) analysis. For every experiment, two additional wells per cell line were lysed using RIPA buffer for protein quantification. Total protein was quantified using the bicinchoninic acid assay [42]. This was later used for normalization of the uptake data.
(§3) Intracellularly accumulated test substances were quantified by HPLC-MS/MS analysis using a Shimadzu Nexera HPLC system with a SIL-30AC autosampler, a CTO-20AC column oven, a LC-30AD pump, and a CBM-20A controller (Shimadzu, Kyoto, Japan). Stereoselective chromatography was carried out on a [sequence] CBH HPLC column (100 × 3 mm inner dimension with 5 μM particle size; Sigma-Aldrich, Darmstadt, Germany) with a corresponding 10 × 3 mm guard column. Reversed phased chromatography was carried out using an ammonium acetate (NH4Ac) buffered aqueous mobile phase with isopropyl alcohol (IPA) as organic solvent. […] The order of elution of the enantiomers was obtained from available reference literature [43] or by applying enantiopure reference compounds to the chiral HPLC. […] Given the structural similarity of the investigated substances and the fact that separation was performed on the same column with almost identical mobile phases, we assume that this order of elution for our compound set is always the (R)- before the (S)-enantiomer.
(§4) Detection was performed with an API 4000 tandem mass spectrometer (AB SCIEX, Darmstadt, Germany) operating in multiple-reaction-monitoring mode. Quantification was performed using the Analyst 1.6.2 software (AB SCIEX, Darmstadt, Germany) and quantified by comparison to standard curves with known concentrations.
(§5) All uptake data were normalized to protein content to account for variation in the number of seeded sells. Transporter-mediated net uptake was calculated by subtracting uptake into empty vector-transfected control cells from uptake into transporter-transfected cells. Kinetic parameters were then determined after non-linear regression following the Michaelis–Menten equation (v = vmax × [S]/(Km + [S])) using GraphPad Prism (Version 5.01 for Windows, GraphPad Software, La Jolla, CA, USA). Vmax refers to the maximum transport velocity and Km is defined as the substance concentration required to reach half of vmax. The intrinsic clearance Clint was calculated as the quotient of vmax over Km.

SERT [1] = target: T2, SERT (Homo sapiens, UniProt P31645); experiment: Stereoselective uptake into SERT-overexpressing HEK293 cells; conditions: for Clint ± SEM: SERT, quotient of vmax over Km; for Vmax ± SEM / Km: HEK293 cells overexpressing human SERT, racemic substrate, two minutes; for Vmax ± SEM: net uptake; for Km: read-out: Km ± SEM, net uptake minus empty vector control;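 on all read-outs here: uptake into HEK293 cells stably expressing human SERT over 2 min, enantiomers measured in cell lysate by chiral HPLC-MS/MS, normalized to total protein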
T2 sequence (P31645 whole entry): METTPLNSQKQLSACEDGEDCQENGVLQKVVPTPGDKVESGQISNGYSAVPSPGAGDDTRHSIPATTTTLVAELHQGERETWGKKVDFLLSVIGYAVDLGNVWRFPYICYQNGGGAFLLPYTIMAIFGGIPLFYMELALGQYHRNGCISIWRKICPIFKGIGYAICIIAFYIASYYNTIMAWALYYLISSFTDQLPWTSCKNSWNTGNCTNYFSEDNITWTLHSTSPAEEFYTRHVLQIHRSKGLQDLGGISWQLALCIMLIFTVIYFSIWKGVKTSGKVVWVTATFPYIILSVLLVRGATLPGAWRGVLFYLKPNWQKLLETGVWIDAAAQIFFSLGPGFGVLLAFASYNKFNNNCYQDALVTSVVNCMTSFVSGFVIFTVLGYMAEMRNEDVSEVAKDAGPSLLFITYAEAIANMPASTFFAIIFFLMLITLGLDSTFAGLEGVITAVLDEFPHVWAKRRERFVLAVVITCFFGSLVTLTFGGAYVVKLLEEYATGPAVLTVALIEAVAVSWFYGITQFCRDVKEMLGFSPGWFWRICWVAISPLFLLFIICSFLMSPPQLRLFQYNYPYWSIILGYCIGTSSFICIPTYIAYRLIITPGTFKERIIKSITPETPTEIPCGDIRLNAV

SERT [2] = target: T2, SERT
OCT1 = target: T3, OCT1 (Homo sapiens, UniProt O15245); experiment: Stereoselective uptake into OCT1-overexpressing HEK293 cells; conditions: for Clint ± SEM: quotient of vmax over Km; for Vmax ± SEM / Km: HEK293 cells overexpressing human OCT1, racemic substrate, two minutes; for Vmax ± SEM: net uptake; for Km: read-out: Km ± SEM, net uptake minus empty vector control;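 on all read-outs here: enantiomers quantified inside cells by chiral HPLC-MS/MS, uptake normalized to total protein from bicinchoninic acid assay, substrates applied in HBSS+ buffer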
T3 sequence (O15245 1-554): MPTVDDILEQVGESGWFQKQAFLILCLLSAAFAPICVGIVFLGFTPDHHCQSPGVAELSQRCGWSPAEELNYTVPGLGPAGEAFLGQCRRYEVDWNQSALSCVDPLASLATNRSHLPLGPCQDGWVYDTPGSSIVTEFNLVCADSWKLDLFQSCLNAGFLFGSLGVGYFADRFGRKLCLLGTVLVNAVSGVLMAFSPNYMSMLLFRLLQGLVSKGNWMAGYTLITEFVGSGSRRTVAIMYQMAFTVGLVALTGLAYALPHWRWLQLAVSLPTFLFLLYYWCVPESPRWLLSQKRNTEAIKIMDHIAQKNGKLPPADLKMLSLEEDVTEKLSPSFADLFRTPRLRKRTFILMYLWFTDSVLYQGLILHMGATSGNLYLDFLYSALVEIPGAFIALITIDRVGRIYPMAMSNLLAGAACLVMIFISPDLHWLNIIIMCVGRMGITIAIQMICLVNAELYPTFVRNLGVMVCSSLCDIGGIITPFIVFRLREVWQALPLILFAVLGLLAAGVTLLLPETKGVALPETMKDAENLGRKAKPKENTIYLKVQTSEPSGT
Procedure: as §1, §2, §3, §4, §5

OCT2 [3] = target: T4, OCT2 (Homo sapiens, UniProt O15244, S270A); experiment: Stereoselective uptake into OCT2 (wild-type)-overexpressing HEK293 cells; conditions: OCT2, ratio between enantiomers; for Stereoselectivity ClInt / Stereoselectivity Vmax: given as for (R) or for 1; for Stereoselectivity Km: given as for (R) or for 1 (first-eluting)
T4 sequence (O15244 1-555 S270A): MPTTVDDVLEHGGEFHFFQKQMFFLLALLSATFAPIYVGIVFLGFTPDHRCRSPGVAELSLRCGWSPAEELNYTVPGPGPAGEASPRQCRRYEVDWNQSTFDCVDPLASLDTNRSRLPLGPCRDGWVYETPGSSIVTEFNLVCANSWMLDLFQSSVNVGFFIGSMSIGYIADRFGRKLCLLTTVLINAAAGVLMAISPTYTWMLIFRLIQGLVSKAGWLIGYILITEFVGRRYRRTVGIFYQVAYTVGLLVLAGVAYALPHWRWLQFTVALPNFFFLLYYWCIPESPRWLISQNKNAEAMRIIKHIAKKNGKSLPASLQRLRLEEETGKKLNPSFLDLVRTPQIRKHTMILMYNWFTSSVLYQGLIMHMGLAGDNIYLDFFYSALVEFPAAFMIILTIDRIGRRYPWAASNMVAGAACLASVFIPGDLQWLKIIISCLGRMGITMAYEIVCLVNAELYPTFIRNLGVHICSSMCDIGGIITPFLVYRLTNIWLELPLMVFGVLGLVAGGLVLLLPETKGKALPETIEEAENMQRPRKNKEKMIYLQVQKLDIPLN

OCT2 [4] = target: T5, OCT2 (Homo sapiens, UniProt O15244); experiment: as above; conditions: for Clint ± SEM: OCT2, quotient of vmax over Km; for Vmax ± SEM / Km: HEK293 cells overexpressing human OCT2, racemic substrate, two minutes; for Vmax ± SEM: net uptake; for Km: read-out: Km ± SEM, net uptake minus empty vector control
T5 sequence (O15244 1-555 S270A): T4 sequence (O15244 1-555 S270A)

OCT2 A270S variant = experiment: Stereoselective uptake into OCT2 A270S variant-overexpressing HEK293 cells; conditions: OCT2 wild-type versus A270S, 100 μM racemic substance, two minutes, given as for WT;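 further: uptake into HEK293 cells stably overexpressing human OCT2 variants, intracellular enantiomers quantified by chiral HPLC-MS/MS and normalized to total protein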
Procedure: as §1, §2
Intracellularly accumulated test substances were quantified by HPLC-MS/MS analysis using a Shimadzu Nexera HPLC system with a SIL-30AC autosampler, a CTO-20AC column oven, a LC-30AD pump, and a CBM-20A controller (Shimadzu, Kyoto, Japan). Stereoselective chromatography was carried out on a [sequence] CBH HPLC column (100 × 3 mm inner dimension with 5 μM particle size; Sigma-Aldrich, Darmstadt, Germany) with a corresponding 10 × 3 mm guard column. Reversed phased chromatography was carried out using an ammonium acetate (NH4Ac) buffered aqueous mobile phase with isopropyl alcohol (IPA) as organic solvent. […] The order of elution of the enantiomers was obtained from available reference literature [43] or by applying enantiopure reference compounds to the chiral HPLC. […] However, in every other case where the order of elution was available, the (R)-enantiomer eluted first. Given the structural similarity of the investigated substances and the fact that separation was performed on the same column with almost identical mobile phases, we assume that this order of elution for our compound set is always the (R)- before the (S)-enantiomer.
as §4, §5
HEK293 cells stably overexpressing wild-type or mutant OCT2 were incubated with 100 μM racemic substance for two minutes.

DAT = DAT (Homo sapiens, UniProt Q01959); experiment: Stereoselective uptake into DAT-overexpressing HEK293 cells; conditions: for Clint ± SEM / Stereoselectivity ClInt / Stereoselectivity Vmax / Stereoselectivity Km: DAT; for Clint ± SEM: quotient of vmax over Km; for Stereoselectivity ClInt / Stereoselectivity Vmax / Stereoselectivity Km: ratio between enantiomers; for Stereoselectivity ClInt / Stereoselectivity Vmax: given as for (S) or for 2; for Stereoselectivity Km: given as for (S) or for 2 (second-eluting); for Vmax ± SEM / Km: HEK293 cells overexpressing human DAT, racemic substrate, two minutes; for Vmax ± SEM: net uptake; for Km: read-out: Km ± SEM, net uptake minus empty vector control;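 on all read-outs here: intracellular accumulation measured by chiral HPLC-MS/MS in stably transfected HEK293 cells, normalized to total protein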
Chain of DAT (Q01959 whole entry): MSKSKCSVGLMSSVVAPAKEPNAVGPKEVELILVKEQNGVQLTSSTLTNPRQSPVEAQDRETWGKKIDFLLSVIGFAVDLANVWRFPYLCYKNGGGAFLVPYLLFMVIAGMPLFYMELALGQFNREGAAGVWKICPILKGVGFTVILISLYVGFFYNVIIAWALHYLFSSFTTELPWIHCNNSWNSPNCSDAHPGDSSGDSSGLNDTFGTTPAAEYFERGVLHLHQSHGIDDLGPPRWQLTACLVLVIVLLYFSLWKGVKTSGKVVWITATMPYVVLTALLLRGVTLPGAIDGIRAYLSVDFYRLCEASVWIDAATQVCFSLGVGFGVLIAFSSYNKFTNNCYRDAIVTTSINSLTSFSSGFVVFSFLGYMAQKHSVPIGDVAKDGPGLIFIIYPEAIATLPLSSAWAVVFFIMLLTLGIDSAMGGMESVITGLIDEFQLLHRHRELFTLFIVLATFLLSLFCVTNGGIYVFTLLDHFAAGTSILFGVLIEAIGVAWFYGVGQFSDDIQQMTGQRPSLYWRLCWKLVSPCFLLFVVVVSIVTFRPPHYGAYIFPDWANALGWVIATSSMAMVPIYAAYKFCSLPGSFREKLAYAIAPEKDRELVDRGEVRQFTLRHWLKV

[5] = OCT3, ratio between enantiomers
[6] = OCT3, ratio between enantiomers, given as for (S) or for 2
[7] = OCT1, ratio between enantiomers, given as for (S) or for 2
[8] = OCT1, ratio between enantiomers, given as for (S) or for 2 (second-eluting)

Structure (SMILES) | Vmax ± SEM (NET) | Clint ± SEM (NET) | Stereoselectivity ClInt (NET) | Stereoselectivity Vmax (NET) | Clint ± SEM (OCT3; OCT3) | Stereoselectivity Vmax (OCT3; [5]) | Stereoselectivity Km (OCT3; [5]) | Stereoselectivity Km (SERT [1]) | Stereoselectivity Vmax (SERT [1]) | Clint ± SEM (SERT [1]) | Clint ± SEM (OCT1; OCT1) | Stereoselectivity ClInt (OCT2 [3]) | Stereoselectivity Vmax (OCT2 [3]) | Stereoselectivity Km (OCT2 [3]) | Clint ± SEM (OCT2 [4]) | Clint ± SEM (DAT) | Stereoselectivity ClInt (DAT) | Stereoselectivity Vmax (DAT) | Stereoselectivity Km (DAT) | Stereoselectivity Km (NET) | also measured
NCC(O)c1cccc(O)c1 (single isomer, unassigned) [Norphenylephrine-2, Norphenylephrine] | 531 pmol × mg Protein^−1 × min^−1 | 230 mL × g Protein^−1 × min^−1 | 1.21 fold | 1.25 fold | 3.32 mL × g Protein^−1 × min^−1 | 3.88 fold | 1.17 fold | 1.20 fold | 1.27 fold | 1.83 mL × g Protein^−1 × min^−1 | 3.84 mL × g Protein^−1 × min^−1 | 1.40 fold | 2.19 fold | 1.57 fold | 26.07 mL × g Protein^−1 × min^−1 | 167 mL × g Protein^−1 × min^−1 | 1.29 fold | 1.55 fold | 1.20 fold |  | Stereoselectivity ClInt (OCT3; human, 2 min): 3.32 fold; Stereoselectivity ClInt (SERT [2]; human): 1.53 fold; Stereoselectivity Vmax (OCT1; OCT1, ratio between enantiomers, given as for (R) or for 1): 1.08 fold; Stereoselectivity Km (OCT1; OCT1, ratio between enantiomers, given as for (R) or for 1 (first-eluting)): 1.03 fold; Stereoselectivity ClInt (OCT1; human, 2 min): 1.05 fold; Transporter selectivity (OCT2 A270S variant; listed as (S)-Norphenylephrine): 1.12 fold
NC[C@H](O)c1ccc(O)c(O)c1 [(R)-Norepinephrine] | 262 ± 15 pmol × mg Protein^−1 × min^−1 | 113.3 ± 47.6 mL × g Protein^−1 × min^−1 | 1.05-fold for (S) | 1.38-fold for (S) ** | 6.61 ± 3.02 mL × g Protein^−1 × min^−1 | 1.01-fold for (R) | 1.07-fold for (R) | 1.01-fold for (R) | 1.79-fold for (R) ** | 4.12 ± 1.31 mL × g Protein^−1 × min^−1 | 0.45 ± 0.28 mL × g Protein^−1 × min^−1 | 1.64-fold for (R) | 2.17-fold for (R) ** | 1.32-fold for (R) | 3.81 ± 1.30 mL × g Protein^−1 × min^−1 | 138.8 ± 19.7 mL × g Protein^−1 × min^−1 | 1.12-fold for (S) | 1.47-fold for (S) *** | 1.31-fold for (S) | 1.32-fold for (S) | Km (NET): 2.31 ± 0.84 µM; Vmax ± SEM (OCT3): 3683 ± 360 pmol × mg Protein^−1 × min^−1; Stereoselectivity ClInt (OCT3; [6]): 1.07-fold for (S); Km (OCT3): 557 ± 200 µM; Vmax ± SEM (SERT [1]): 727 ± 60 pmol × mg Protein^−1 × min^−1; Km (SERT [1]): 176 ± 41.7 µM; Stereoselectivity ClInt (SERT [2]): 1.78-fold for (R); Vmax ± SEM (OCT1): 1524 ± 330 pmol × mg Protein^−1 × min^−1; Stereoselectivity ClInt (OCT1; [7]): 1.06-fold for (S); Stereoselectivity Vmax (OCT1; [7]): 1.16-fold for (S); Stereoselectivity Km (OCT1; [8]): 1.09-fold for (S); Km (OCT1): 3390 ± 1420 µM; Vmax ± SEM (OCT2 [4]): 6603 ± 664 pmol × mg Protein^−1 × min^−1; Km (OCT2 [4]): 1730 ± 418 µM; Transporter selectivity (OCT2 A270S variant): 1.21 fold; Vmax ± SEM (DAT): 3085 ± 81 pmol × mg Protein^−1 × min^−1; Km (DAT): 22.2 ± 2.6 µM
NC[C@@H](O)c1ccc(O)c(O)c1 [(S)-Norepinephrine] | 362 ± 20 pmol × mg Protein^−1 × min^−1 | 118.7 ± 46.0 mL × g Protein^−1 × min^−1 | 1.05-fold for (S) | 1.38-fold for (S) ** | 7.05 ± 2.73 mL × g Protein^−1 × min^−1 | 1.01-fold for (R) | 1.07-fold for (R) | 1.01-fold for (R) | 1.79-fold for (R) ** | 2.31 ± 0.93 mL × g Protein^−1 × min^−1 | 0.48 ± 0.20 mL × g Protein^−1 × min^−1 | 1.64-fold for (R) | 2.17-fold for (R) ** | 1.32-fold for (R) | 2.32 ± 0.71 mL × g Protein^−1 × min^−1 | 155.5 ± 21.4 mL × g Protein^−1 × min^−1 | 1.12-fold for (S) | 1.47-fold for (S) *** | 1.31-fold for (S) | 1.32-fold for (S) | Km (NET): 3.05 ± 1.01 µM; Vmax ± SEM (OCT3): 3662 ± 299 pmol × mg Protein^−1 × min^−1; Stereoselectivity ClInt (OCT3; [6]): 1.07-fold for (S); Km (OCT3): 519 ± 158 µM; Vmax ± SEM (SERT [1]): 405 ± 42 pmol × mg Protein^−1 × min^−1; Km (SERT [1]): 175 ± 52.2 µM; Stereoselectivity ClInt (SERT [2]): 1.78-fold for (R); Vmax ± SEM (OCT1): 1766 ± 258 pmol × mg Protein^−1 × min^−1; Stereoselectivity ClInt (OCT1; [7]): 1.06-fold for (S); Stereoselectivity Vmax (OCT1; [7]): 1.16-fold for (S); Stereoselectivity Km (OCT1; [8]): 1.09-fold for (S); Km (OCT1): 3710 ± 1010 µM; Vmax ± SEM (OCT2 [4]): 3042 ± 258 pmol × mg Protein^−1 × min^−1; Km (OCT2 [4]): 1310 ± 291 µM; Transporter selectivity (OCT2 A270S variant): 1.22 fold; Vmax ± SEM (DAT): 4524 ± 122 pmol × mg Protein^−1 × min^−1; Km (DAT): 29.1 ± 3.2 µM

Reference: PMC9599461, “Stereoselectivity in the Membrane Transport of Phenylethylamine Derivatives by Human Monoamine Transporters and Organic Cation Transporters 1, 2, and 3” (Biomolecules, 2022)
